Reference: patent publication US9334263B2, “Compositions useful for treating disorders related to kit” (BLUEPRINT MEDICINES CORPORATION, priority 2013, dated 2016)

How the values were obtained:
[1] = target: T1, D816V Kit (Homo sapiens, UniProt P10721, D816V); assay: Kit D816V assay at Km (Caliper electrophoretic mobility shift); type: biochemical; settings: 15 uM ATP, 25 C, 90 minutes
T1 construct: purchased Carna Bioscience 08-156
Method: In order to assess the activity of chemical compounds against the relevant kinase of interest, the Caliper LifeSciences electrophoretic mobility shift technology platform is used. Fluorescently labeled substrate peptide is incubated in the presence of kinase and ATP so that a […] proportion of the peptide is phosphorylated. At the end of the reaction, the mix of phosphorylated (product) and non-phosphorylated (substrate) peptides are passed through the microfluidic system of the Caliper EZ Reader 2, under an applied potential difference. The presence of the phosphate group on the product peptide provides a difference in mass and charge between those of the substrate peptide, resulting in a separation of the substrate and product pools in the sample. As the pools pass a LEDS within the instrument, these pools are detected and resolved as separate peaks. The ratio between these peaks therefore reflects the activity of the chemical matter at that concentration in that well, under those conditions.
The reaction was stopped by the addition of 70 ul of Stop buffer (100 mM HEPES pH 7.5, 0.015% Brij 35, 35 mM EDTA and 0.2% of Coating Reagent 3 (Caliper Lifesciences)). The plate was then read on a Caliper EZReader 2 (protocol settings: −1.9 psi, upstream voltage −700, downstream voltage −3000, post sample sip 35 s).

[2] = target: T2, Kit D816V (HMC1.2 cells, Kit V560G and D816V) (Homo sapiens, UniProt P10721, D816V/V560G); assay: HMC1.2 autophosphorylation assay (AlphaLISA, phospho-Y719 c-Kit); type: cell-based; settings: Kit autophosphorylation at tyrosine 719, 90 minutes, read-out: Cellular Activity
T2 construct: endogenous in cells; host or cells: HMC1.2 cells
T2 sequence (P10721 26-976 V560G/D816V): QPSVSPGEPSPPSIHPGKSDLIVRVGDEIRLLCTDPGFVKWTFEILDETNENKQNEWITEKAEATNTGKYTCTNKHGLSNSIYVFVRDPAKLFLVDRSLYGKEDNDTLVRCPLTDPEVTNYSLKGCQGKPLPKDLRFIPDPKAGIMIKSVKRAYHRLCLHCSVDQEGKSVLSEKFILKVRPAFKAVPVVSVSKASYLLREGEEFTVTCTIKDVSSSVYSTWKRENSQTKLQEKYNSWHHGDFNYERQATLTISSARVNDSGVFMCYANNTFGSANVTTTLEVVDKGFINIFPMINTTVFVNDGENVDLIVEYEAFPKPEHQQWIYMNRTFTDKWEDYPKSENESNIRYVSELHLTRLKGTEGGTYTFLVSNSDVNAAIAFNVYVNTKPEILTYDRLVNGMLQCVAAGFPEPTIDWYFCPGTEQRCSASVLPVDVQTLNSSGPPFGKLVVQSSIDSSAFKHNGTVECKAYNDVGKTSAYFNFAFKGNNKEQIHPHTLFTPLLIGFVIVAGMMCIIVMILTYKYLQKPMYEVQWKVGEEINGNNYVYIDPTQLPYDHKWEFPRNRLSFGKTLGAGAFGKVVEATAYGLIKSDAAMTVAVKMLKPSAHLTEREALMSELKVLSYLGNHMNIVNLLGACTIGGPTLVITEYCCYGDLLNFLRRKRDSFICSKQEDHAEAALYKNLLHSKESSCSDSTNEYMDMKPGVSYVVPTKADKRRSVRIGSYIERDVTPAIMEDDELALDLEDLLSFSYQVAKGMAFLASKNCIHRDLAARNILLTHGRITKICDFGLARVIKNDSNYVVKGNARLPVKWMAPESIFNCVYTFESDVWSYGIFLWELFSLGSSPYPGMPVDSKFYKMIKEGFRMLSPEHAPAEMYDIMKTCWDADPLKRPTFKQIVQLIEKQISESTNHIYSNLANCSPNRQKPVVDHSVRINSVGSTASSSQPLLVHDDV
Method: HMC1.2 Autophosphorylation Assay:
10,000 HMC1.2 cells were incubated in 22 ul culture media (phenol-red free IMDM, no serum) in each well of a 384-well plate and serum starved overnight in a tissue culture incubator (5% CO2, 37° C.). A 10-point dose concentration series of compound (25 uM-95.4 pM) were then added to the cells in a volume of 3.1 ul to each well (0.25% DMSO final concentration). After 90 minutes, 6 ul of 5× AlphaLISA Lysis Buffer (Perkin Elmer) supplemented with a protease and phosphatase inhibitor cocktail (Cell Signaling Technologies) was added to each well and shaken at 450 rpm for 15 minutes at 4° C. 10 ul of phospho-Y719 c-Kit and total c-Kit antibodies (15 nM final concentration, Cell Signaling Technologies) and 50 ug/ml AlphaLISA rabbit acceptor beads (Perkin Elmer) were added to each well and shaken at 300 rpm at room temperature for 2 hours. 10 ul of 100 ug/ml streptavidin donor beads (Perkin Elmer) were added to each well, blocked from light with aluminum adhesive and shaken at 300 rpm at room temperature for 2 hours. Fluorescence signal was obtained on Envision (Perkin Elmer) by AlphaScreen 384 well HTS protocol.
This cell line contains Kit mutated at positions V560G and D816V resulting in constitutive activation of the kinase. The following compounds were tested in an assay to measure direct inhibition of Kit D816V kinase activity by assaying Kit autophosphorylation at tyrosine 719 on the Kit protein.

T1 sequence (P10721 26-976 D816V): as the sequence (P10721 26-976 V560G/D816V) above, with G535V counted along it

## CC(C)(O)CN1CCc2ccc(Nc3ncnc(N4CCN(c5ncc(Cc6ccccc6)cn5)CC4)n3)cc2C1 [Compound 262]
[1]
  IC50: < 1 nM
[2]
  IC50: 10 to 100 nM

## OC[C@@H](O)Cn1cc(Nc2ncnc(N3CCN(c4ncc(Cc5ccccc5)cn4)CC3)n2)cn1 [Compound 65]
[1]
  IC50: < 1 nM
[2]
  IC50: 10 to 100 nM

## Fc1ccc(Sc2ncc(N3CCN(c4ncnc(Nc5cnn(C[C@@H]6CNCCO6)c5)n4)CC3)nn2)cc1 [Compound 258]
[1]
  IC50: 1.01 to 10 nM
[2]
  IC50: 10 to 100 nM

## C[C@H](O)Cn1cc(Nc2ncnc(N3CCN(c4ncc(Sc5ccccc5F)cn4)CC3)n2)cn1 [Compound 100]
[1]
  IC50: < 1 nM
[2]
  IC50: 10 to 100 nM

## C[C@@H](O)CNc1ccc(Nc2ncnc(N3CCN(c4ncc(Cc5ccccc5)cn4)CC3)n2)cc1 [Compound 82]
[1]
  IC50: < 1 nM
[2]
  IC50: 10 to 100 nM

## Cc1nn(C[C@H](C)O)cc1Nc1ncnc(N2CCN(c3ncc(Sc4ccc(F)cc4)cn3)CC2)n1 [Compound 152]
[1]
  IC50: < 1 nM
[2]
  IC50: < 10 nM

## CC(O)c1ccc(Nc2ncnc(N3CCN(c4ncc([C@@](C)(N)c5ccc(F)cc5)cn4)CC3)n2)cc1 (stereo partly drawn) [Compound 140]
[1]
  IC50: < 1 nM

## C[C@H](O)CN1CCc2ccc(Nc3ncnc(N4CCN(c5ncc(Cc6ccccc6)cn5)CC4)n3)cc2C1 [Compound 221]
[1]
  IC50: < 1 nM
[2]
  IC50: < 10 nM

## C=C(c1ccccc1)c1cnc(N2CCN(c3ncnc(Nc4cnn(C[C@@H]5CNCCO5)c4)n3)CC2)nc1 [Compound 173]
[1]
  IC50: 1.01 to 10 nM
[2]
  IC50: 10 to 100 nM

## OC[C@H](O)c1ccc(Nc2ncnc(N3CCN(c4ncc(Cc5ccc(F)cc5)cn4)CC3)n2)cc1 [Compound 93]
[1]
  IC50: < 1 nM
[2]
  IC50: 10 to 100 nM

## Fc1ccc(Cc2cnc(N3CCN(c4ncnc(Nc5ccc6c(c5)CNCC6)n4)CC3)nc2)cc1F [Compound 139]
[1]
  IC50: 1.01 to 10 nM
[2]
  IC50: 10 to 100 nM

## O[C@@H](c1ccccc1)c1cnc(N2CCN(c3ncnc(Nc4cnn(CC5CNCCO5)c4)n3)CC2)nc1 (stereo partly drawn) [Compound 189, (S)-(2-(4-(4-(1-(morpholin-2-ylmethyl)-1H-pyrazol-4-ylamino)-1,3,5-triazin-2-yl)piperazin-1-yl)pyrimidin-5-yl)(phenyl)methanol]
[1]
  IC50: < 1 nM
[2]
  IC50: 10 to 100 nM

## C[C@](N)(c1ccc(F)cc1)c1cnc(N2CCN(c3ncnc(Nc4ccc(N5CCC[C@H](O)C5)cc4)n3)CC2)nc1 [Compound 275]
[1]
  IC50: < 1 nM
[2]
  IC50: 10 to 100 nM

## Nc1nc(N2CCN(c3ncnc(Nc4ccc5c(c4)CN(CCO)CC5)n3)CC2)ncc1Cc1ccccc1 [Compound 229]
[1]
  IC50: < 1 nM
[2]
  IC50: < 10 nM

## C[C@H](O)CNc1ccc(Nc2ncnc(N3CCN(c4ncc(Cc5ccccc5)cn4)CC3)n2)cc1 [Compound 81]
[1]
  IC50: < 1 nM
[2]
  IC50: 10 to 100 nM

## C[C@](N)(c1ccc(F)cc1)c1cnc(N2CCN(c3ncnc(Nc4ccccc4)n3)CC2)nc1 [Compound 29]
[1]
  IC50: < 1 nM
[2]
  IC50: 10 to 100 nM

## CN1CCNC[C@@H]1Cn1cc(Nc2ncnc(N3CCN(c4ncc(Cc5ccccc5)cn4)CC3)n2)cn1 [Compound 177]
[1]
  IC50: 1.01 to 10 nM
[2]
  IC50: 10 to 100 nM

## Cc1c(Nc2ncnc(N3CCN(c4ncc(Cc5ccccc5F)cn4)CC3)n2)cnn1C[C@@H]1CNCCO1 [Compound 272]
[1]
  IC50: < 1 nM
[2]
  IC50: 10 to 100 nM

## CC(C)(O)Cn1cc(Nc2ncnc(N3CCN(c4ncc([C@](C)(O)c5ccc(F)cc5)cn4)CC3)n2)cn1 [Compound 207]
[1]
  IC50: < 1 nM
[2]
  IC50: 10 to 100 nM

## Cc1nn(C[C@H](C)O)cc1Nc1ncnc(N2CCN(c3ncc(Sc4ccccc4F)cn3)CC2)n1 [Compound 153]
[1]
  IC50: < 1 nM
[2]
  IC50: 10 to 100 nM

## Fc1ccc(Nc2cnc(N3CCN(c4ncnc(Nc5cnn(C[C@@H]6CNCCO6)c5)n4)CC3)nc2)cc1 [Compound 200]
[1]
  IC50: 1.01 to 10 nM
[2]
  IC50: 100 to 1000 nM

## Cc1cc(Nc2ncnc(N3CCN(c4ncc(Cc5ccccc5)cn4)CC3)n2)no1 [Compound 11]
[1]
  IC50: 10 to 100 nM

## COc1cc(N2CCNCC2)ccc1Nc1ncnc(N2CCN(c3ncc(Cc4ccccc4)cn3)CC2)n1 [Compound 230]
[1]
  IC50: 1.01 to 10 nM
[2]
  IC50: 1000 to 10000 nM

## Nc1nc(N2CCN(c3ncnc(NC4CC4)n3)CC2)ncc1Cc1ccccc1 [Compound 3]
[1]
  IC50: > 100 nM

## Fc1ccccc1Cc1cnc(N2CCN(c3ncnc(Nc4cnn(C[C@@H]5CNCCO5)c4)n3)CC2)cn1 [Compound 198]
[1]
  IC50: < 1 nM
[2]
  IC50: < 10 nM

## O[C@@H]1CCN(c2ccc(Nc3ncnc(N4CCN(c5ncc(Cc6ccccc6)cn5)CC4)n3)cc2)C1 [Compound 111]
[1]
  IC50: 1.01 to 10 nM
[2]
  IC50: 10 to 100 nM

## CN1CCC(CCNc2ncnc(N3CCN(c4ncc(Cc5ccccc5)cn4)CC3)n2)CC1 [Compound 35]
[1]
  IC50: > 100 nM
[2]
  IC50: > 10000 nM

## OC[C@@H]1CN(c2ncnc(Nc3cnn(CC4CNCCO4)c3)n2)CCN1c1ncc(Cc2ccccc2)cn1 (stereo partly drawn) [Compound 248]
[1]
  IC50: < 1 nM
[2]
  IC50: 10 to 100 nM

## CC(C)(c1ccccc1)c1cnc(N2CCN(c3ncnc(Nc4cnn(C[C@@H]5CNCCO5)c4)n3)CC2)nc1 [Compound 244]
[1]
  IC50: < 1 nM
[2]
  IC50: 10 to 100 nM

## Fc1ccccc1Sc1cnc(N2CCN(c3ncnc(Nc4ccc(C5CNCCO5)cc4)n3)CC2)nc1 (stereo not drawn) [Compound 251]
[1]
  IC50: 1.01 to 10 nM
[2]
  IC50: 100 to 1000 nM

## Fc1cc(O[C@H]2CCCNC2)ccc1Nc1ncnc(N2CCN(c3ncc(Cc4ccccc4)cn3)CC2)n1 [Compound 238]
[1]
  IC50: 1.01 to 10 nM
[2]
  IC50: 100 to 1000 nM

## C[C@@H]1CN(c2ncnc(Nc3ccc(N4CCC[C@@H](O)C4)cc3)n2)CCN1c1ncc(Cc2ccccc2)cn1 [Compound 222]
[1]
  IC50: 1.01 to 10 nM
[2]
  IC50: 10 to 100 nM

## c1ccc(Cc2cnc(N3CCN(c4ncnc(Nc5cnn(C6CNC6)c5)n4)CC3)nc2)cc1 [Compound 27]
[1]
  IC50: 1.01 to 10 nM
[2]
  IC50: 10 to 100 nM

## OCC(O)c1ccc(Nc2ncnc(N3CCN(c4ncc(Cc5ccccc5)cn4)CC3)n2)cc1 (stereo not drawn) [Compound 55]
[1]
  IC50: < 1 nM
[2]
  IC50: 10 to 100 nM

## OC[C@@H](O)COc1cccc(Nc2ncnc(N3CCN(c4ncc(Cc5ccccc5)cn4)CC3)n2)c1 [Compound 130]
[1]
  IC50: 1.01 to 10 nM
[2]
  IC50: 10 to 100 nM

## CC1(Cn2cc(Nc3ncnc(N4CCN(c5ncc(Cc6ccccc6)cn5)CC4)n3)cn2)COC1 [Compound 87]
[1]
  IC50: 1.01 to 10 nM
[2]
  IC50: 10 to 100 nM

## CC(C)(O)Cn1cc(Nc2ncnc(N3CCN(c4ncc(C(C)(C)c5ccc(F)cc5)cn4)CC3)n2)cn1 [Compound 201]
[1]
  IC50: < 1 nM
[2]
  IC50: 10 to 100 nM

## C(#CC1CC1)c1cnc(N2CCN(c3ncnc(Nc4cnn(C[C@@H]5CNCCO5)c4)n3)CC2)nc1 [Compound 63, (S)-4-(4-(5-(cyclopropylethynyl)pyrimidin-2-yl)piperazin-1-yl)-N-(1-(morpholin-2-ylmethyl)-1H-pyrazol-4-yl)-1,3,5-triazin-2-amine]
[1]
  IC50: > 100 nM

## FC(F)(c1ccccc1)c1cnc(N2CCN(c3ncnc(Nc4cnn(C[C@@H]5CNCCO5)c4)n3)CC2)nc1 [Compound 254]
[1]
  IC50: 1.01 to 10 nM

## C[C@@](O)(c1ccc(F)cc1)c1cnc(N2CCN(c3ncnc(Nc4cnn(C[C@@H]5CNCCO5)c4)n3)CC2)nc1 (single isomer, unassigned) [Compound 270]
[1]
  IC50: 1.01 to 10 nM

## c1nc(Nc2cnn(C[C@@H]3CNCCO3)c2)nc(N2CCN(c3ncc(CCC4CC4)cn3)CC2)n1 [Compound 67]
[1]
  IC50: 10 to 100 nM

## CNc1ncnc(N2CCN(c3ncc(Cc4ccccc4)c(N)n3)CC2)n1 [Compound 1]
[1]
  IC50: > 100 nM

## C[C@@H]1CN(c2ncnc(Nc3cnn(C[C@@H]4CNCCO4)c3)n2)CCN1c1ncc(Br)c(N)n1 [Compound 194]
[1]
  IC50: 10 to 100 nM

## OC[C@H]1CN(c2ncnc(Nc3cnn(CC4CNCCO4)c3)n2)CCN1c1ncc(Cc2ccccc2)cn1 (stereo partly drawn) [Compound 247]
[1]
  IC50: 10 to 100 nM

## Cc1c(Nc2ncnc(N3CCN(c4ncc(Br)cn4)CC3)n2)cnn1C[C@@H]1CNCCO1 [Compound 142]
[1]
  IC50: 10 to 100 nM

## Clc1ncc(N2CCN(c3ncnc(Nc4ccc5c(c4)CNCC5)n3)CC2)nn1 [Compound 8]
[1]
  IC50: 10 to 100 nM

## Nc1nc(N2CCN(c3ncnc(Nc4cnn(CC5CN(C=O)CCO5)c4)n3)CC2)ncc1Cl (stereo not drawn) [Compound 90]
[1]
  IC50: 10 to 100 nM
